Laboratory results taken from patent publication US20070244110A1, “Treatment of prostate cancer, melanoma or hepatic cancer” (ZENYAKU KOGYO KABUSHIKI KAISHA, priority 2006, published 2007).

What was measured:
[1] = system: PC-3 prostate cancer cells; assay: In vitro anti-tumor experiment, growth inhibition of PC-3 cells; format: cell-based; details: Homo sapiens; PC-3, 72 hours incubation
Method: (§1) Hepatoma HepG2 cells were cultured in a MEM culture medium (containing 10% fetal bovine serum, 25 mM HEPES and 0.1 mg/ml kanamycin) under conditions of 5% carbon dioxide at 37° C. HepG2 cells were harvested as single free cells by a tripsin/EDTA treatment in the logarithmic growth phase, and a cell suspension solution consisted of 2×10^4 cells per ml was prepared with MEM culture medium (containing 10% fetal bovine serum, 25 mM HEPES and 0.1 mg/ml kanamycin). The test compound was dissolved in DMSO, then diluted with RPMI1640 culture medium (containing 10% fetal bovine serum, 25 mM HEPES, 0.1 mg/ml kanamycin), and adjusted to a concentration of 2.0×10^−9 to 2.0×10^−3 M.
(§2) 0.1 ml of the cell suspension solution was put in each well of a 96-well plate, then cultured for 24 hours to make the cells adhere to the microplates, and 0.1 ml of the test compound was added in each well and incubated for 72 hours under conditions of 5% carbon dioxide at 37° C. The 50% growth inhibition concentration (GI50 value μM) was computed from the growth inhibition rates at various test sample concentrations, and the results are shown in Table 1.
(§3) When using cells other than HepG2 cells, the following culture media were used instead of the MEM culture medium, and the following single cell suspensions were prepared with the following media:
PC-3 prostate cancer cells:
F12K culture medium containing 10% fetal bovine serum, 2×10^4 cell suspension

Hepatoma HepG2 cells = assay: In vitro anti-tumor experiment, growth inhibition of HepG2 cells; format: cell-based; details: Homo sapiens; HepG2, 72 hours incubation
Method: as §1, §2

B16F10 melanoma cells = assay: In vitro anti-tumor experiment, growth inhibition of B16F10 cells; format: cell-based; details: Mus musculus, B16-F10; B16F10, 72 hours incubation
Method: as §1, §2, §3
RPMI1640 culture medium containing 10% fetal bovine serum, 1×10^4 cell suspension

SMILES: CC1(C)CN(c2nc(N3CCOCC3)nc(-n3c(C(F)F)nc4c(Cl)cc(N)cc43)n2)CCO1 [Compound 12, 2-(6-amino-4-chloro-2-difluoromethylbenzimidazol-1-yl)-4-(2,2-dimethylmorpholino)-6-morpholino-1,3,5-triazine]
- GI50 [1]: 100 nM
- GI50 (Hepatoma HepG2 cells): 260 nM
- melting point: 238 °C (dec.)
- GI50 (B16F10 melanoma cells): 270 nM
